From paper PMC6522941, “Design, synthesis, and anticancer evaluation of novel quinoline derivatives of ursolic acid with hydrazide, oxadiazole, and thiadiazole moieties as potent MEK inhibitors” (Journal of Enzyme Inhibition and Medicinal Chemistry, 2019)

Columns and labels:
MDA-MB-231 cells = experiment: MTT cytotoxic assay, MDA-MB-231; type: cell-based, human
Experimental: (§1) Human breast cancer cell line (MDA-MB-231), cervical carcinoma cell line (HeLa), the liver cancer cell line (SMMC-7721) and normal hepatocyte cell line (QSG-7701) were maintained in Dulbecco Modified Eagle Medium (DMEM) containing 4.0 mM L-Glutamine and 4500 mg/L Glucose supplemented with 10% (v/v) foetal bovine serum (FBS) and 100 U/mL penicillin/streptomycin at 37 °C in humidified atmosphere of 5% CO2 and 95% air.
(§2) Exponentially growing MDA-MB-231, Hela and SMMC-7721 cell lines were seeded into 96-well plate for 100 μL and treated with different concentrations of the synthetic compounds for 72 h, and then 10 μL of MTT (10 mg/mL) was added and incubation for 3 ∼ 4 h at 37 °C. The generated purple formazan crystals from viable can be dissolved by adding 100 μL DMSO. The plates were swirled gently for 5 min and quantified by measuring the OD of the plates at the wavelength of 540 nm. Each concentration was repeated in three wells and the same experimental condition was provided for all compounds. The results were expressed as IC50 values with standard deviations, which was defined as the concentration at which 50% survival of cells was discerned. Etoposide was co-assayed as positive control.
(§3) The in vitro cytotoxic activity of derivatives 3a–d, 4a–h, 5a–h, and 6a–h were evaluated by MTT assay against human breast cancer cell line (MDA-MB-231), cervical carcinoma cell line (HeLa), hepatocarcinoma cell line (SMMC-7721) and human normal hepatocyte cell line (QSG-7701). The anticancer drug etoposide was co-assayed as the positive control. All tested compounds were dissolved in DMSO and the stock solutions were diluted by DMEM medium before treatment of the cultured cells.

HeLa cells = experiment: MTT cytotoxic assay, HeLa; type: cell-based; conditions: Homo sapiens, 72 h
Experimental: as §1, §2, §3

SMMC-7721 cells = experiment: MTT cytotoxic assay, SMMC-7721; type: cell-based; conditions: Homo sapiens, 72 h
Experimental: as §1, §2, §3

QSG-7701 cells = experiment: MTT cytotoxic assay, normal hepatocyte QSG-7701; type: cell-based, human; conditions: for IC50: Homo sapiens, QSG7701, MTT, normal hepatocyte cell line; for Selectivity: IC50 (QSG-7701)/IC50 (HeLa)
Experimental: as §1, §2, §3

MEK1 = target: T1, MEK1 (Homo sapiens, UniProt Q02750); experiment: In vitro MEK1 kinase assay (ADP-Glo); type: biochemical; conditions: recombinant GST-MEK1, GST-ERK2 (inactive) substrate, 10 μM ATP
T1 construct: purchased Carna Biosciences, Kobe, Japan
T1 sequence (Q02750 whole entry): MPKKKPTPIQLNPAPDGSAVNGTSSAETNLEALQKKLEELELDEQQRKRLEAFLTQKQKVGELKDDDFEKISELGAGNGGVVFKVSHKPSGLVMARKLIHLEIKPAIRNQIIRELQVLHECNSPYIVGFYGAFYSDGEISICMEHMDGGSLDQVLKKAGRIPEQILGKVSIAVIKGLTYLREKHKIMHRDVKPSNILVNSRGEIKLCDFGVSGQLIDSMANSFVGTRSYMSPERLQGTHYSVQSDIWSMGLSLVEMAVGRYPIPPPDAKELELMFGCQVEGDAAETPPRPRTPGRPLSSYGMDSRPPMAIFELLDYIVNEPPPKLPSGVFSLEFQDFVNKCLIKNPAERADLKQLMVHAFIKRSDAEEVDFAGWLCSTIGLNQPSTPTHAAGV
Experimental: An in vitro kinase assay of MEK1 was performed using ADP-Glo kinase assay (Promega, Madison, WI, USA) according to the manufacturer’s protocol. […] Reactions were stopped by adding 5 μL of ADP-Glo reagent to each well. After incubating at 22 °C for 40 min, 10 μL of the kinase detection reagent was added and the plates were incubated for another 30 min at 22 °C in the dark. The reaction mixture was analysed by EnSpire (PerkinElmer, Waltham, MA, USA).
The Raf/MEK/ERK pathway is the downstream of Ras activation, and the abnormal expression or phosphorylation of the associated proteins is essential for cancer cell proliferation. In this pathway, MEK kinase is an important anticancer target because of its key roles in regulating the cancer cell apoptosis and oncogenic transformation[51]^,[52]. Among MEK proteins, MEK1 and MEK2 are known as substrate-specific kinases which phosphorylate their downstream kinase ERK1/2.

Row | Structure (SMILES) | IC50 (MDA-MB-231 cells; Homo sapiens, MDA-MB-231, 72 h) | IC50 (HeLa cells) | IC50 (SMMC-7721 cells) | IC50 (QSG-7701 cells) | Selectivity (QSG-7701 cells) | IC50 (MEK1) | IC50 (MDA-MB-231 cells; 72 h)
1 | CC(=O)NNC(=O)[C@]12CC[C@@H](C)[C@H](C)C1C1=CCC3[C@@]4(C)Cc5cc6cc(F)ccc6nc5C(C)(C)C4CC[C@@]3(C)[C@]1(C)CC2 (stereo partly drawn) [Compound 4c, N-[5′-fluoro-ursa-12-en-(2,3)-quinoline-28-oyl]-acetohydrazide] | 1.16 ± 0.06 µM | 0.99 ± 0.05 µM | 19.41 ± 0.12 µM | > 50 µM | 63.8 | 0.072 µM | 
2 | COc1ccc2nc3c(cc2c1)CC1(C)C(CCC2(C)C1CC=C1C4C(C)C(C)CCC4(C(=O)O)CCC12C)C3(C)C (stereo not drawn) [Compound 3b] | 0.61 ± 0.07 µM | 0.36 ± 0.05 µM | 12.49 ± 0.08 µM | > 50 µM | 142.3 | 3.59 µM | 
3 | C[C@@H]1CC[C@]2(C(=O)O)CC[C@]3(C)C(=CCC4[C@@]5(C)Cc6cc7cc(F)ccc7nc6C(C)(C)C5CC[C@]43C)C2[C@H]1C (stereo partly drawn) [Compound 3c] | 0.9 ± 0.1 µM | 1.87 ± 0.03 µM | 13.34 ± 0.13 µM | > 50 µM | 37.0 | 0.37 µM | 
4 | Cc1nnc([C@]23CC[C@@H](C)[C@H](C)C2C2=CCC4[C@@]5(C)Cc6cc7cc(Cl)ccc7nc6C(C)(C)C5CC[C@@]4(C)[C@]2(C)CC3)s1 (stereo partly drawn) [Compound 6d] | 15.8 ± 1.32 µM | 10.9 ± 1.07 µM | > 50 µM | > 50 µM | 5.7 | > 50 µM | 
5 | Cc1nnc([C@]23CC[C@@H](C)[C@H](C)C2C2=CCC4[C@@]5(C)Cc6cc7ccccc7nc6C(C)(C)C5CC[C@@]4(C)[C@]2(C)CC3)o1 (stereo partly drawn) [Compound 5a, N-2-[ursa-12-en-(2,3)-quinoline-28-oyl]-5-methyl-1,3,4-oxadiazole] | < 10 µM | 19.4 ± 0.7 µM | > 50 µM | > 50 µM | 4.3 | > 50 µM | 5.32 ± 0.13 µM
6 | C[C@@H]1CC[C@]2(C(=O)O)CC[C@]3(C)C(=CCC4[C@@]5(C)Cc6cc7ccccc7nc6C(C)(C)C5CC[C@]43C)C2[C@H]1C (stereo partly drawn) [Compound 3a] | 0.75 ± 0.05 µM | 0.37 ± 0.04 µM | 13.4 ± 0.08 µM | > 50 µM |  | 18.6 µM | 
